#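 GI50 = concentration required for 50% inhibition of growth. The concentration for full growth arrest is given as TGI.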
# Legend:
# Assay in all cases: growth of human tumour cells (NCI), 384-well format
# 786-0 renal = tested on: 786-0 renal
# A498 renal = tested on: A498 renal
# A549 NSCLC = tested on: A549 NSCLC
# ACHN renal = tested on: ACHN renal
# BT-549 breast = tested on: BT-549 breast
# CAKI-1 renal = tested on: CAKI-1 renal
# CCRF-CEM leukemia = tested on: CCRF-CEM leukemia
# COLO 205 colon = tested on: COLO 205 colon
# DU-145 prostate = tested on: DU-145 prostate
# EKVX NSCLC = tested on: EKVX NSCLC
# HCC-2998 colon = tested on: HCC-2998 colon
# HCT-116 colon = tested on: HCT-116 colon
# HCT-15 colon = tested on: HCT-15 colon
# HL-60(TB) leukemia = tested on: HL-60(TB) leukemia
# HOP-62 NSCLC = tested on: HOP-62 NSCLC
# HOP-92 NSCLC = tested on: HOP-92 NSCLC
# HS 578T breast = tested on: HS 578T breast
# HT29 colon = tested on: HT29 colon
# IGROV1 ovarian = tested on: IGROV1 ovarian
# K-562 leukemia = tested on: K-562 leukemia
# KM12 colon = tested on: KM12 colon
# LOX IMVI melanoma = tested on: LOX IMVI melanoma
# M14 melanoma = tested on: M14 melanoma
# MALME-3M melanoma = tested on: MALME-3M melanoma
# MCF7 breast = tested on: MCF7 breast
# MDA-MB-231 breast = tested on: MDA-MB-231 breast
# MDA-MB-435 melanoma = tested on: MDA-MB-435 melanoma
# MDA-MB-468 breast = tested on: MDA-MB-468 breast
# MOLT-4 leukemia = tested on: MOLT-4 leukemia
# NCI-H226 lung = tested on: NCI-H226 lung
# NCI-H23 lung = tested on: NCI-H23 lung
# NCI-H322M lung = tested on: NCI-H322M lung
# NCI-H460 NSCLC = tested on: NCI-H460 NSCLC
# NCI-H522 lung = tested on: NCI-H522 lung
# NCI/ADR-RES ovarian = tested on: NCI/ADR-RES ovarian
# OVCAR-3 ovarian = tested on: OVCAR-3 ovarian
# OVCAR-4 ovarian = tested on: OVCAR-4 ovarian
# OVCAR-5 ovarian = tested on: OVCAR-5 ovarian
# OVCAR-8 ovarian = tested on: OVCAR-8 ovarian
# PC-3 prostate = tested on: PC-3 prostate
# RPMI-8226 leukemia = tested on: RPMI-8226 leukemia
# RXF 393 renal = tested on: RXF 393 renal
# SF-268 CNS = tested on: SF-268 CNS
# SF-295 CNS = tested on: SF-295 CNS
# SF-539 CNS = tested on: SF-539 CNS
# SK-MEL-2 melanoma = tested on: SK-MEL-2 melanoma
# SK-MEL-28 melanoma = tested on: SK-MEL-28 melanoma
# SK-OV-3 ovarian = tested on: SK-OV-3 ovarian
# SN12C renal = tested on: SN12C renal
# SNB-19 CNS = tested on: SNB-19 CNS
# SNB-75 CNS = tested on: SNB-75 CNS
# SR leukemia = tested on: SR leukemia
# SW-620 colon = tested on: SW-620 colon
# T-47D breast = tested on: T-47D breast
# TK-10 renal = tested on: TK-10 renal
# U251 glioblastoma = tested on: U251 glioblastoma
# UACC-257 melanoma = tested on: UACC-257 melanoma
# UACC-62 melanoma = tested on: UACC-62 melanoma
# UO-31 renal = tested on: UO-31 renal
smiles,measurement,setting,value
CO[C@H]1C[C@@H]2CC[C@@H](C)[C@@](O)(O2)C(=O)C(=O)N2CCCC[C@H]2C(=O)O[C@H]([C@H](C)C[C@@H]2CC[C@@H](O)[C@H](OC)C2)CC(=O)[C@H](C)C=C(C)[C@@H](O)[C@@H](OC)C(=O)[C@H](C)C[C@H](C)/C=C/C=C/C=C1C,GI50,786-0 renal,5.99 µM
same,TGI,786-0 renal,26.9 µM
same,TGI,A498 renal,17.4 µM
same,TGI,A549 NSCLC,> 45.4 µM
same,GI50,ACHN renal,1.61 µM
same,TGI,ACHN renal,23.4 µM
same,GI50,BT-549 breast,3.98 µM
same,TGI,BT-549 breast,18.7 µM
same,TGI,CAKI-1 renal,21.5 µM
same,TGI,CCRF-CEM leukemia,7.12 µM
same,GI50,COLO 205 colon,11.3 µM
same,TGI,COLO 205 colon,23.4 µM
same,GI50,DU-145 prostate,4.69 µM
same,TGI,DU-145 prostate,36.2 µM
same,GI50,EKVX NSCLC,12.3 µM
same,TGI,EKVX NSCLC,29.1 µM
same,GI50,HCC-2998 colon,4.72 µM
same,TGI,HCC-2998 colon,18.6 µM
same,GI50,HCT-116 colon,8.71 µM
same,TGI,HCT-116 colon,24.2 µM
same,GI50,HCT-15 colon,3.92 µM
same,TGI,HCT-15 colon,19.7 µM
same,GI50,HL-60(TB) leukemia,3.98 µM
same,TGI,HL-60(TB) leukemia,7.97 µM
same,TGI,HOP-62 NSCLC,20.2 µM
same,GI50,HOP-92 NSCLC,11 µM
same,TGI,HOP-92 NSCLC,25 µM
same,TGI,HS 578T breast,9.94 µM
same,GI50,HT29 colon,6.66 µM
same,TGI,HT29 colon,21.8 µM
same,TGI,IGROV1 ovarian,15.3 µM
same,GI50,K-562 leukemia,4.35 µM
same,TGI,K-562 leukemia,18.4 µM
same,GI50,KM12 colon,10.2 µM
same,TGI,KM12 colon,23.1 µM
same,GI50,LOX IMVI melanoma,13.1 µM
same,TGI,LOX IMVI melanoma,25.8 µM
same,GI50,M14 melanoma,11 µM
same,TGI,M14 melanoma,23.7 µM
same,TGI,MALME-3M melanoma,20.6 µM
same,TGI,MCF7 breast,15.4 µM
same,GI50,MDA-MB-231 breast,12 µM
same,TGI,MDA-MB-231 breast,24.5 µM
same,GI50,MDA-MB-435 melanoma,11.6 µM
same,TGI,MDA-MB-435 melanoma,24.2 µM
same,TGI,MDA-MB-468 breast,8.1 µM
same,TGI,MOLT-4 leukemia,4.88 µM
same,GI50,NCI-H226 lung,10.3 µM
same,TGI,NCI-H226 lung,23.5 µM
same,GI50,NCI-H23 lung,12 µM
same,TGI,NCI-H23 lung,24.8 µM
same,GI50,NCI-H322M lung,12.7 µM
same,TGI,NCI-H322M lung,25.8 µM
same,TGI,NCI-H460 NSCLC,16.8 µM
same,GI50,NCI-H522 lung,6.69 µM
same,TGI,NCI-H522 lung,21.4 µM
same,GI50,NCI/ADR-RES ovarian,14.9 µM
same,TGI,NCI/ADR-RES ovarian,34.2 µM
same,GI50,OVCAR-3 ovarian,10.9 µM
same,TGI,OVCAR-3 ovarian,24.2 µM
same,GI50,OVCAR-4 ovarian,9.82 µM
same,TGI,OVCAR-4 ovarian,25.5 µM
same,GI50,OVCAR-5 ovarian,12.9 µM
same,TGI,OVCAR-5 ovarian,27.4 µM
same,GI50,OVCAR-8 ovarian,7.29 µM
same,TGI,OVCAR-8 ovarian,22.6 µM
same,TGI,PC-3 prostate,17.9 µM
same,TGI,RPMI-8226 leukemia,4.45 µM
same,GI50,RXF 393 renal,12.5 µM
same,TGI,RXF 393 renal,25.2 µM
same,GI50,SF-268 CNS,10.2 µM
same,TGI,SF-268 CNS,23.8 µM
same,TGI,SF-295 CNS,20 µM
same,GI50,SF-539 CNS,2.53 µM
same,TGI,SF-539 CNS,19.6 µM
same,GI50,SK-MEL-2 melanoma,11.2 µM
same,TGI,SK-MEL-2 melanoma,27.9 µM
same,GI50,SK-MEL-28 melanoma,12.7 µM
same,TGI,SK-MEL-28 melanoma,25.5 µM
same,GI50,SK-OV-3 ovarian,10.7 µM
same,TGI,SK-OV-3 ovarian,22.9 µM
same,GI50,SN12C renal,7.42 µM
same,TGI,SN12C renal,24.5 µM
same,GI50,SNB-19 CNS,6.46 µM
same,TGI,SNB-19 CNS,23.2 µM
same,GI50,SNB-75 CNS,13 µM
same,TGI,SNB-75 CNS,25.8 µM
same,TGI,SR leukemia,1.89 µM
same,GI50,SW-620 colon,13 µM
same,TGI,SW-620 colon,26 µM
same,GI50,T-47D breast,1.33 µM
same,TGI,T-47D breast,36.6 µM
same,GI50,TK-10 renal,0.518 µM
same,TGI,TK-10 renal,27.5 µM
same,GI50,U251 glioblastoma,3.94 µM
same,TGI,U251 glioblastoma,20.3 µM
same,GI50,UACC-257 melanoma,16 µM
same,TGI,UACC-257 melanoma,29.6 µM
same,GI50,UACC-62 melanoma,4.54 µM
same,TGI,UACC-62 melanoma,19.7 µM
same,GI50,UO-31 renal,11 µM
same,TGI,UO-31 renal,23.2 µM

# From PubChem BioAssay (NCI)
